Data: publication PMC5458211, “Mitochondrial VDAC1-based peptides: Attacking oncogenic properties in glioblastoma” (Oncotarget, 2017)
Non-standard residues stand in square brackets, D forms with d. Residues, ends and D or L forms follow the SMILES beside them.

What was measured:
Type in all cases: cell-based, human
[1] = system: cellular ATP levels in U-87MG cells; experiment: Cellular ATP levels (CellTiter-Glo); details: 3 h, % of control, n=2 or 3
Procedure: (§1) Figure 2 Mode of action of VDAC1-based peptides – interacting with- and detaching HK, releasing Cyto c, decreasing ATP level and inducing apoptosis A. Purified HK-II was fluorescently labeled using the NanoTemper protein-labeling Kit BLUE. […] Then, 3-5 μl of the samples were loaded into MST-grade glass capillaries and thermophoresis was measured using a Monolith-NT115 apparatus, as described in Materials and methods available online in Supplemental information. […] The final DMSO concentration in control and peptide-treated cells was 0.07%. Fixed cells were visualized using confocal microscopy (Olympus 1×81), as described in Materials and Methods available online in Supplemental information. […] The levels of HK in the supernatants were quantified and are presented as relative units. D. D-ΔN-Ter-Antp induces mitochondrial inner membrane depolarization analyzed as described in Materials and Methods available online in Supplemental information. […] Cells then were analyzed for Δψ using TMRM. Δψ is presented as percentage of control. […] Release of Cyto c from the mitochondria was analyzed by immunostaining using anti-Cyto c antibodies and confocal microscopy (Olympus 1×81) as described in Materials and Methods available online in Supplemental information. […] Quantification of apoptosis in control and peptide's treated cells are presented bellow the images. […]

HK-I-GFP = HK-I-GFP detachment from mitochondria by confocal microscopy, U-87MG; details: 7 μM, 3 h, serum-free medium
Procedure: as §1

U-118MG cells = experiment: Cell death by PI staining and flow cytometry, U-118MG; details: 6 h at 37°C, serum-free medium, means ± SD (n=3), Fig 1H, read-out: IC50 for inducing cell death
From the text: Figure 1 VDAC1-based peptides induce dramatic cell death of several brain tumor-derived cell lines but to lesser extent in primary brain cells A. IHC staining of VDAC1 of human normal brain (n=13) or glioblastoma (n=41) in tissue array slides (Biomax), as described in Materials and methods available online in Supplemental information. Percentages of sections stained at the intensity indicated are shown. […] The VDAC1-derived sequences Δ(1-14)N-terminus and LP4 are in green and pink, respectively. The cell-penetrating peptides Antp and Tf are in orange and blue, respectively. The loop shape of LP4 stabilized by a tryptophan zipper is in purple. The amino acids of Δ(1-14)N-terminus, LP4 and Antp are in the D configuration. The sequences of D-LP4 and Retro-D-LP4 are presented below. C. […] Cells were harvested, washed twice with PBS and cell death was analyzed by propidium iodide (PI) staining and flow cytometry. […] Cells were harvested, washed twice with PBS and cell death was analyzed by PI staining and flow cytometry. […]
Cells (6×10^5 /ml) were incubated in 500 μl serum-free medium with the peptide of interest for 6 h at 37°C in the presence of 5% CO2. The cells were then trypsinized, centrifuged (1500xg, 5 min), washed with PBS and analyzed for cell death using propidium iodide (PI) staining and flow cytometer (Beckton-Dickinson, San Jose, CA) and BD CellQuest Pro software. […]

SMILES | decrease in cellular ATP levels [1] | HK-I-GFP detachment (fluorescence distribution) (HK-I-GFP) | IC50 (U-118MG cells)
CC[C@H](C)[C@H](NC(=O)[C@H](C)NC(=O)[C@@H](N)Cc1c[nH]cn1)C(=O)N[C@@H](Cc1ccc(O)cc1)C(=O)N1CCC[C@H]1C(=O)N[C@@H](CCCNC(=N)N)C(=O)N[C@@H](Cc1c[nH]cn1)C(=O)N[C@@H](CO)C(=O)N[C@@H](Cc1c[nH]c2ccccc12)C(=O)N[C@H](C(=O)N[C@@H](Cc1c[nH]c2ccccc12)C(=O)N[C@@H](CCC(=O)O)C(=O)N[C@H](CCCCN)C(=O)N[C@H](CCCCN)C(=O)N[C@H](CC(C)C)C(=O)N[C@H](CCC(=O)O)C(=O)N[C@@H](C(=O)N[C@H](C)C(=O)N[C@@H](C(=O)N[C@H](CC(N)=O)C(=O)N[C@H](CC(C)C)C(=O)N[C@H](C)C(=O)N[C@H](Cc1c[nH]c2ccccc12)C(=O)N[C@@H](C(=O)N[C@H](C)C(=O)NCC(=O)N[C@H](CC(N)=O)C(=O)N[C@H](CO)C(=O)N[C@H](CC(N)=O)C(=O)N[C@@H](CCCCN)C(=O)N[C@@H](Cc1c[nH]c2ccccc12)C(=O)N[C@H](C(=O)N[C@@H](Cc1c[nH]c2ccccc12)C(=O)N[C@@H](CCCCN)C(=O)O)[C@@H](C)O)[C@H](C)O)C(C)C)[C@H](C)O)[C@@H](C)O [Tf-D-LP4] | about 50% | became diffuse | 1.7 ± 0.3 µM
CC[C@@H](C)[C@@H](NC(=O)[C@@H](CCCCN)NC(=O)[C@H](NC(=O)[C@@H](CCC(N)=O)NC(=O)[C@@H](CCCNC(=N)N)NC(=O)[C@@H](CC(C)C)NC(=O)CNC(=O)[C@@H](Cc1ccccc1)NC(=O)CNC(=O)[C@@H](Cc1ccc(O)cc1)NC(=O)CNC(=O)[C@@H](CCCCN)NC(=O)[C@H](NC(=O)[C@@H](Cc1ccccc1)NC(=O)[C@H](NC(=O)[C@@H](CC(=O)O)NC(=O)[C@H](N)CCCNC(=N)N)C(C)C)[C@H](C)O)[C@H](C)CC)C(=O)N[C@H](Cc1c[nH]c2ccccc12)C(=O)N[C@H](Cc1ccccc1)C(=O)N[C@H](CCC(N)=O)C(=O)N[C@H](CC(N)=O)C(=O)N[C@H](CCCNC(=N)N)C(=O)N[C@H](CCCNC(=N)N)C(=O)N[C@H](CCSC)C(=O)N[C@H](CCCCN)C(=O)N[C@H](Cc1c[nH]c2ccccc12)C(=O)N[C@H](CCCCN)C(=O)N[C@H](CCCCN)C(=O)O [D-ΔN-Ter-Antp] (H-[dR][dD][dV][dF][dT][dK]G[dY]G[dF]G[dL][dR][dQ][dI][dK][dI][dW][dF][dQ][dN][dR][dR][dM][dK][dW][dK][dK]-OH; N-terminus and C-terminus assumed) | about 80% | became diffuse | 5 ± 0.6 µM
